Where a SMILES comes first, the peptide text is derived from it. [ ]: non-standard residue; d: D form. dTrp(1-Me) = Cn1cc(C[C@@H](N)C(=O)O)c2ccccc21
Tests used:
[1] = Chemical stability of compound in PBS buffer assessed as compound remaining at pH 7.4 at 5 uM measured after 6 hrs by LC-MS/MS analysis; type: physicochemical; conditions: read-out: Stabilty
[2] = Dose normalized AUC (0 to infinity) in rat at 10 mg/kg, po measured upto 72 hrs by LC-MS/MS analysis; type: ADME, organism-based; conditions: in vivo
[3] = Chemical stability of compound in simulated intestinal fluid assessed as compound remaining at 5 uM measured after 3 hrs by LC-MS/MS analysis; type: ADME, physicochemical; conditions: read-out: Stabilty
[4] = Chemical stability of compound in simulated intestinal fluid assessed as compound remaining at 5 uM measured after 24 hrs by LC-MS/MS analysis; type: ADME, physicochemical; conditions: read-out: Stabilty
[5] = Change in normalised AUCinfinity in rat at 10 mg/kg, po measured upto 72 hrs by LC-MS/MS analysis; type: ADME, organism-based; conditions: in vivo
[6] = Chemical stability of compound in simulated gastric fluid assessed as compound remaining at 5 uM measured after 24 hrs by LC-MS/MS analysis; type: ADME, physicochemical; conditions: read-out: Stabilty
[7] = Chemical stability of compound in simulated gastric fluid assessed as compound remaining at 5 uM measured after 1.5 hrs by LC-MS/MS analysis; type: ADME, physicochemical; conditions: read-out: Stabilty
[8] = Stability in rat plasma assessed as parent compound remaining measured after 2 hrs by LC-MS/MS analysis; type: ADME, cell-free; conditions: read-out: Stabilty
[9] = Dose normalized Cmax in rat at 10 mg/kg, po measured upto 72 hrs by LC-MS/MS analysis; type: ADME, organism-based; conditions: in vivo
[10] = Stability in human plasma assessed as parent compound remaining measured after 24 hrs by LC-MS/MS analysis; type: ADME, cell-free; conditions: read-out: Stabilty
[11] = Chemical stability of compound in PBS buffer assessed as compound remaining at pH 7.4 at 5 uM measured after 24 hrs by LC-MS/MS analysis; type: physicochemical; conditions: read-out: Stabilty
[12] = Chemical stability of compound in 0.1 N aqueous HCl buffer assessed as compound remaining at pH 1 at 5 uM measured after 24 hrs by LC-MS/MS analysis; type: physicochemical; conditions: pH 1, 24 h
[13] = Chemical stability of compound in 0.1 N aqueous HCl buffer assessed as compound remaining at pH 1 at 5 uM measured after 1.5 hrs by LC-MS/MS analysis; type: physicochemical; conditions: pH 1, 1.5 h
[14] = Chemical stability of compound in saline assessed as compound remaining at 5 uM measured after 24 hrs by LC-MS/MS analysis; type: physicochemical; conditions: read-out: Stabilty
[15] = Stability in human plasma assessed as parent compound remaining measured after 6 hrs by LC-MS/MS analysis; type: ADME, cell-free; conditions: read-out: Stabilty
[16] = Stability in mouse plasma assessed as parent compound remaining measured after 2 hrs by LC-MS/MS analysis; type: ADME, cell-free; conditions: read-out: Stabilty
[17] = Change in normalised Cmax in rat at 10 mg/kg, po measured upto 72 hrs by LC-MS/MS analysis; type: ADME, organism-based; conditions: in vivo
[18] = Change in Cmax in rat at 37 umol/kg, po measured upto 72 hrs by LC-MS/MS analysis; type: ADME, organism-based; conditions: in vivo, at 37 µmol/kg
[19] = Change in AUC (infinity) in rat at 37 umol/kg, po measured upto 72 hrs by LC-MS/MS analysis; type: ADME, organism-based; conditions: in vivo, at 37 µmol/kg

Structure (SMILES)	remaining at 6 h, 5 µM [1] [%]	AUC/dose [2] [µM·h]	remaining at 3 h, 5 µM [3] [%]	remaining at 24 h, 5 µM [4] [%]	Activity [5] [%]	remaining at 24 h, 5 µM [6] [%]	remaining at 1.5 h, 5 µM [7] [%]	remaining at 2 h [8] [%]	Cmax/dose [9] [µM]	remaining at 24 h [10] [%]	remaining at 24 h, 5 µM [11] [%]	Stabilty [12] [%]	Stabilty [13] [%]	remaining at 24 h, 5 µM [14] [%]	remaining at 6 h [15] [%]	remaining at 2 h [16] [%]	Activity [17] [%]	Activity [18] [%]	Activity [19] [%]
Cl.Cn1cc(C[C@@H](N)C(=O)N[C@H](Cc2cn(C)c3ccccc23)C(=O)O)c2ccccc21	100	262	81	77	-48	49	63	80	3	82	34	91	45	91	92	65	-83		
CN(C)CCOC(=O)[C@H](N)Cc1cn(C)c2ccccc12.Cl	0	731	0	0	44	2	2	0	39.5	2	0	47	3	47	10	0	128		
Cn1cc(C[C@@H](N)C(=O)OCC(O)CO)c2ccccc21.O=S(=O)(O)O (stereo partly drawn)																		2	21
Cl.Cn1cc(C[C@@H](N)C(=O)OCC(N)C(=O)O)c2ccccc21 (single isomer, unassigned)	0	588	0	0	16	56	56	84	13.3	0	0	70	10	70	0	80	-23		
CCOC(=O)[C@@H](Cc1cn(C)c2ccccc12)NC(=O)[C@@H](N)CCC(N)=O.O=P(O)(O)O																		-32	-28
CCOC(=O)[C@@H](Cc1cn(C)c2ccccc12)NC(=O)[C@@H](N)CCC(N)=O																		5	-16
CCOC(=O)[C@@H](Cc1cn(C)c2ccccc12)NC(=O)[C@@H](N)[C@@H](C)CC.Cl	97	606	91	38	19	97	98	0	12.8	16	63	97	95	97	75	0	-26		
Cl.Cn1cc(C[C@@H](NC(=O)[C@H](N)Cc2c[nH]c3ccccc23)C(=O)O)c2ccccc21	81	182	53	51	-64	48	51	79	3.2	32	45	87	53	87	77	82	-82		
Cn1cc(C[C@@H](NC(=O)[C@@H](N)CCCCN)C(=O)O)c2ccccc21																		-17	-13
Cl.Cn1cc(C[C@@H](NC(=O)[C@@H](N)Cc2c[nH]c3ccccc23)C(=O)O)c2ccccc21	55	415	88	69	-18	73	81	76	12	94	33	61	52	61	97	90	-31		
CS(=O)(=O)O.Cn1cc(C[C@@H](N)C(=O)OCC(O)CO)c2ccccc21 (stereo partly drawn)																		-27	-27
Cn1cc(C[C@@H](NC(=O)CN)C(=O)O)c2ccccc21.O=P(O)(O)O (H-Gly-[dTrp(1-Me)]-OH)																		-3	3
CCOC(=O)[C@@H](Cc1cn(C)c2ccccc12)NC(=O)[C@@H](N)Cc1ccccc1.Cl	96	329	65	0	-35	86	89	0	7.9	11	96	90	99	90	68	0	-54		
CCOC(=O)[C@@H](Cc1cn(C)c2ccccc12)NC(=O)[C@@H](N)CC(C)C.CS(=O)(=O)O																		111	127
CCOC(=O)[C@@H](Cc1cn(C)c2ccccc12)NC(=O)[C@@H](N)CC(C)C.O=S(=O)(O)O																		-23	-5
CC(C)[C@H](N)C(=O)N[C@H](Cc1cn(C)c2ccccc12)C(=O)O.Cl	91	338	78	76	-33	50	55	9	14.2	47	44	99	98	99	79	57	-18		
Cl.Cn1cc(C[C@@H](N)C(=O)OCCC2CCOCC2)c2ccccc21	85	774	67	0	52	60	85	0	15	54	0	76	52	76	85	0	-14		
Cn1cc(C[C@@H](N)C(=O)OCC2CCNCC2)c2ccccc21.O=P(O)(O)O																		-79	-64
Cn1cc(C[C@@H](NC(=O)[C@@H](N)CCCCN)C(=O)O)c2ccccc21.O=P(O)(O)O																		4	-17
CC(C)C[C@H](N)C(=O)N[C@H](Cc1cn(C)c2ccccc12)C(=O)O.Cl	95	617	66	0	21	97	95	100	24.4	82	95	99	92	99	87	88	41		
CCOC(=O)[C@@H](Cc1cn(C)c2ccccc12)NC(=O)[C@@H](N)CCC(N)=O.CS(=O)(=O)O																		4	-12
CCOC(=O)[C@@H](Cc1cn(C)c2ccccc12)NC(=O)[C@@H](N)CCC(N)=O.O=S(=O)(O)O																		20	-20
Cn1cc(C[C@@H](NC(=O)[C@@H](N)CCCCN)C(=O)O)c2ccccc21.O=S(=O)(O)O																		-4	10
CCOC(=O)[C@@H](Cc1cn(C)c2ccccc12)NC(=O)[C@@H](N)CC(C)C.O=S(=O)(O)c1ccccc1																		29	45

Reference: ChEMBL document CHEMBL4837181 (Eur J Med Chem, 2020)
